Measurements: US8957074B2 (Novartis AG, priority 2010, dated 2015)
Where two headings read alike, the source gives them in different places.

Columns and labels:
[1] = system: phosphorylation of pRb at the Ser780 site in JeKo-1 mantle cell lymphoma cells; assay: CDK4 cellular assay: ELISA of pRb phosphorylation at Ser780 in JeKo-1 cells; type: cell-based
From the text: Cell-based assay measuring phosphorylation levels of pRb at the Ser780 site using an enzyme-linked immunosorbent assay (ELISA) method (Table 6). JeKo-1, a mantle-cell lymphoma cell line, was selected for use in this assay due to its known translocation and subsequent overexpression of cyclin D1. [Ref: Amin, H. M.; McDonnell, T. J.; Medeiros, L. J.; Rassidakis, G. Z.; Leventaki, V.; O'Connor, S. L.; Keating, M. J.; Lai, R. Characterization of 4 mantle cell lymphoma cell lines—Establishment of an in vitro study model. Arch. Pathol. Lab.
Cells were allowed to adhere overnight. […] 10 μL of the dilution were then transferred to the cell culture plate, resulting in a final concentration range of 10 μM to 2 nM. The incubation was carried out at 37° C. with 5% CO2. All compounds were tested in triplicates at each concentration. […] The plates were placed at 4° C. with vigorous shaking for 5 min to lyse the cells. The resulting lysates contained approximately 1 μg/μL of protein.
Plates were incubated overnight at 4° C. with rocking. […] After shaking for 10 minutes, the Superblock solution was replaced with fresh Superblock and plates were incubated on a shaker for an additional 50 min. After blocking, 30 μL of JeKo-1 cell lysate, containing approximately 10 μg total protein, were added to wells in triplicate. […] For all incubation steps, plates were covered with Uniseal plate sealers. […] Next, 50 μL of a 1:2500 dilution of donkey-anti-rabbit HRP (Promega catalog no. W401B) in PBS/10% Superblock were added, and plates were incubated for 30 min at room temperature on a shaker. Plates were again washed as described above. […] After incubation, 50 μL 2 M sulfuric acid were added to plates to top the reaction, and absorbance was determined on a SpectraMax (Molecular Devices, Sunnydale, Calif.) within 15 minutes at 450 nm. All washes were performed using a Bio-Tek plate washer.
The Total Rb ELISA kit (Invitrogen catalog no. KH00011) was used to determine the levels of total pRb. This kit uses wells precoated with a proprietary total pRb antibody for capture. All reagents listed, with the exception of cell lysate, were included in the kit. The nature of the antibodies used for capture and detection was labeled as proprietary and not disclosed. 10 μg of cell lysate was loaded into the wells and volume adjusted to 50 μL with standard dilution buffer. Plates were sealed with film included in the kit and incubated for 2 h at room temperature on a shaker. Plates are then manually washed three times with 250 μL wash buffer. 50 μL of proprietary primary antibody (pre-conjugated to biotin) was added to wells and incubated for 1 h at room temperature on a shaker. Then plates were again washed as noted above. The secondary antibody (HRP pre-conjugated to Streptavidin) was diluted 1:100 in Streptavidin-HRP diluent buffer and 50 μL was added to each well. Plates were then incubated for 30 min. Afterwards, plates were washed four times with buffer as outlined above. Finally, 50 μL stabilized Chromogen was added per well and plates were incubated for 15 min, at which point 50 μL of stop solution was added. Plates were then read on a Spectramax at 450 nm.
The total pRb levels were then used to adjust the p-pRb % inhibition values to account for any loss of signal due to the absence of the pRb protein itself, and the IC50 values obtained from the adjusted % inhibitions represent normalized cellular p-pRb IC50.

CDK1/cyclin B = CDK1/cyclin B (Homo sapiens (Human), UniProt P06493); assay: CDK1/cyclin B enzymatic activity assay (IMAP-FP); type: biochemical; settings: […] CDK1/cyclin B, 100 nM Tamra Histone-H1 peptide, 20 μM ATP, 120 min at room temperature; read-out: Biochemical CDK1 enzyme IC50
CDK1/cyclin B, sequence (P06493 whole entry, species assumed): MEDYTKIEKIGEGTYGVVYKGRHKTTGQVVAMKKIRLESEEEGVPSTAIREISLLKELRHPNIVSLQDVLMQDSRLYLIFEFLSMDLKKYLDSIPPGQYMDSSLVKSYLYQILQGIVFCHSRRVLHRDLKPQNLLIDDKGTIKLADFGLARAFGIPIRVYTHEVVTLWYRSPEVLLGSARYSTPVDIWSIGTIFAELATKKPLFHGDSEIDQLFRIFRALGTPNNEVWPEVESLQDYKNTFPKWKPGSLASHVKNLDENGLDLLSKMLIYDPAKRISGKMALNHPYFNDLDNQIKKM
CDK1/cyclin B, sequence (P14635 whole entry partner, species assumed): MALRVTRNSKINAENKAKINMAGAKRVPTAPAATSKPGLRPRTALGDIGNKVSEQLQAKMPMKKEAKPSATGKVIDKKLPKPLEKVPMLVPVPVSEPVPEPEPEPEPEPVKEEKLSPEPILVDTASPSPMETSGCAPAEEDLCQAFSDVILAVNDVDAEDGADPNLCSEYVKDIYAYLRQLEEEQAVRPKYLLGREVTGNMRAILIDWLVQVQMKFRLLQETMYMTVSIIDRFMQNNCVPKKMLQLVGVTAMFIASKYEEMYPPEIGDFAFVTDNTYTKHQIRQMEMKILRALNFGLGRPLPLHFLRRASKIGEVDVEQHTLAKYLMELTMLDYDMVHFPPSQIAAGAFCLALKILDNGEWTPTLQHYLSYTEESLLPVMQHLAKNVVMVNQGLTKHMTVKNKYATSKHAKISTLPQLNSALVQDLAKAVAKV
From the text: CDK1/Cyclin B Enzymatic Activity Assay
A 384-well microtiter IMAP-FP™ (Molecular Devices Trade Mark Technology) endpoint assay was used for CDK1/cyclin B kinase activity measurements. The same assay was used for IC50 determination of small molecule inhibitors.

CDK4/cyclin D1 = CDK4/cyclin D1 (Homo sapiens (Human), UniProt P11802); assay: CDK4/cyclin D1 enzymatic activity assay (TR-FRET, phosphorylation of pRb at Ser780); type: biochemical
CDK4/cyclin D1, sequence (P11802 whole entry): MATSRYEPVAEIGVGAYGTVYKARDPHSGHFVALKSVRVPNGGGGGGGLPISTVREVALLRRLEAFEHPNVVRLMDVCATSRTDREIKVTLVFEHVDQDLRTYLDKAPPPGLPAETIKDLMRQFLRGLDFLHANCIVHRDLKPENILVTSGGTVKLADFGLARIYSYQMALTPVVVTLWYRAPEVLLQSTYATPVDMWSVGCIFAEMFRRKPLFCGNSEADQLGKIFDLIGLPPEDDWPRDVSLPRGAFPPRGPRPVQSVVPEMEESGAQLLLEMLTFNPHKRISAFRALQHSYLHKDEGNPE
CDK4/cyclin D1, sequence (P24385 whole entry partner): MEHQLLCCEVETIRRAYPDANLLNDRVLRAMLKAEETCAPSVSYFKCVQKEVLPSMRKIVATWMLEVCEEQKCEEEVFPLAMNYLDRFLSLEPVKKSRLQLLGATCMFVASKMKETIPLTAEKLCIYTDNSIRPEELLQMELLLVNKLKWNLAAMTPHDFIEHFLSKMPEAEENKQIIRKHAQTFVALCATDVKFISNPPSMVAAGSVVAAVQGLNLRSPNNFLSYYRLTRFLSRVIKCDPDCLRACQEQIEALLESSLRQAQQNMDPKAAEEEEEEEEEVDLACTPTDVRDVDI
Method: CDK4/Cyclin D1 Enzymatic Activity Assay
An assay for monitoring CDK4/cyclin D1-catalyzed phosphorylation of pRb at the Ser780 site was performed using TR-FRET in a 384-well format, and was used for IC50 determination and kinetic analysis. […] 3 μM ATP was added last to initiate the reaction. The reaction was quenched with 10 μL of 240 mM EDTA-Na (pH 8.0) after 60 min incubation at 22° C.
Human CDK4/cyclin D1 was expressed in Sf21 cells via baculovirus infection.

[2] = Homo sapiens, JeKo-1, JeKo-1 cells, p-pRb % inhibition adjusted with total pRb levels, read-out: Normalized cellular ppRb inhibition IC50
[3] = Homo sapiens, JeKo-1, JeKo-1 cells, p-pRb Ser780 ELISA, non-normalized, read-out: Cellular ppRb inhibition IC50
[4] = 0.3 nM CDK4/cyclin D1, 150 nM biotin-pRb (773-924), 3 μM ATP, 60 min at 22° C.; read-out: Biochemical CDK4 enzyme IC50
[5] = Homo sapiens, JeKo-1 cells, p-pRb % inhibition adjusted with total pRb levels, read-out: Normalized cellular ppRb inhibition IC50
[6] = Homo sapiens, JeKo-1 cells, p-pRb Ser780 ELISA, non-normalized, read-out: Cellular ppRb inhibition IC50

SMILES	IC50 (CDK1/cyclin B)	IC50 (CDK4/cyclin D1; [4])	IC50 [1, 2]	IC50 [1, 3]	IC50 [1, 5]	IC50 [1, 6]	IC50 ([1]; Homo sapiens, JeKo-1, read-out: Cellular ppRb inhibition IC50)	IC50 ([1]; Homo sapiens, JeKo-1, read-out: Normalized cellular ppRb inhibition IC50)	IC50 ([1]; JeKo-1 cells, p-pRb % inhibition adjusted with total pRb levels, read-out: Normalized cellular ppRb inhibition IC50)	IC50 ([1]; JeKo-1 cells, p-pRb Ser780 ELISA, non-normalized, read-out: Cellular ppRb inhibition IC50)	IC50 (CDK4/cyclin D1; read-out: Biochemical CDK4 enzyme IC50; 0.3 nM CDK4/cyclin D1, 150 nM biotin-pRb (773-924), 3 μM ATP, 60 min at 22° C.)
CC(CO)N1C2CCC1CN(C(=O)c1ccc(Nc3ncc4cc(C(=O)N(C)C)n(C5CCCC5)c4n3)nc1)C2 (centres unmarked) [Example 35, 7-cyclopentyl-2-(5-(8-(1-hydroxypropan-2-yl)-3,8-diazabicyclo[3.2.1]octane-3-carbonyl)pyridin-2-ylamino)-N,N-dimethyl-7H-pyrrolo[2,3-d]pyrimidine-6-carboxamide]	> 15000 nM	26 nM	197 nM	69 nM							
CN(C)C(=O)c1cc2cnc(Nc3ccc(N4C[C@H]5CC[C@@H](CC4=O)N5CC(F)(F)F)cn3)nc2n1C1CCCC1 [Example 144, 7-cyclopentyl-N, N-dimethyl-2-(5-((1R,6S)-4-oxo-9-(2,2,2-trifluoroethyl)-3,9-diazabicyclo[4.2.1]nonan-3-yl)pyridin-2-ylamino)-7H-pyrrolo[2,3-d]pyrimidine-6-carboxamide]	> 15000 nM	19 nM			49 nM	31 nM					
CN(C)C(=O)c1cc2cnc(Nc3ccc(C(=O)N4CC5CCC(C4)N5)cn3)nc2n1-c1ccc(C(C)(C)C)cc1 [Example 53, 7-(4-tert-Butyl-phenyl)-2-[5-(3,8-diaza-bicyclo[3.2.1]octane-3-carbonyl)-pyridin-2-ylamino]-7H-pyrrolo[2,3-d]pyrimidine-6-carboxylic acid dimethylamide]	> 15000 nM	3 nM	7 to 27 nM	7 to 14 nM							
CN(C)C(=O)c1cc2cnc(Nc3ccc(N4C[C@H]5CNC[C@H]5C4=O)cn3)nc2n1C1CCCC1 [Example 86, 7-cyclopentyl-N,N-dimethyl-2-(5-((3aR,6aS)-1-oxohexahydropyrrolo[3,4-c]pyrrol-2(1H)-yl)pyridin-2-ylamino)-7H-pyrrolo[2,3-d]pyrimidine-6-carboxamide]	20600 nM	5 to 6 nM	13 to 14 nM	8 to 17 nM							
CN(C)C(=O)c1cc2cnc(Nc3ccc(N4CC5CCC(C4)N5)nn3)nc2n1C1CCCCC1 [Example 126, 7-Cyclohexyl-2-[6-(3,8-diaza-bicyclo[3.2.1]oct-3-yl)-pyridazin-3-ylamino]-7H-pyrrolo[2,3-d]pyrimidine-6-carboxylic acid dimethylamide]	> 15000 nM	10 to 31 nM	45 to 49 nM	23 to 32 nM							
CN(C)C(=O)c1cc2cnc(Nc3ccc(N4C[C@@H]5CNC[C@@H]5CC4=O)cn3)nc2n1C1CCCC1 (stereo in doubt) [Example 92, 7-cyclopentyl-N,N-dimethyl-2-(5-(cis-6-oxotetrahydro-1H-pyrrolo[3,4-c]pyridin-5(6H,7H,7aH)-yl)pyridin-2-ylamino)-7H-pyrrolo[2,3-d]pyrimidine-6-carboxamide]	25100 nM	5 to 7 nM					5 to 20 nM	19 to 38 nM			
CN(C)C(=O)c1cc2cnc(Nc3ccc(C(=O)N4CC5CCC4C5O)cn3)nc2n1C1CCCCCC1 [Example 7, 7-cycloheptyl-2-(5-((1R,4R,7R)-7-hydroxy-2-azabicyclo[2.2.1]heptane-2-carbonyl)pyridin-2-ylamino)-N,N-dimethyl-7H-pyrrolo[2,3-d]pyrimidine-6-carboxamide]	17600 nM	21 nM			288 nM	127 nM					
CN(C)C(=O)c1cc2cnc(Nc3ccc(N4CCC5(CCCN5)C4=O)cn3)nc2n1C1CCCOC1 (centres unmarked) [Example 121, N,N-dimethyl-2-(5-(6-oxo-1,7-diazaspiro[4.4]nonan-7-yl)pyridin-2-ylamino)-7-(tetrahydro-2H-pyran-3-yl)-7H-pyrrolo[2,3-d]pyrimidine-6-carboxamide]	> 15000 nM	79 to 107 nM			199 to 791 nM	184 to 489 nM					
CN(C)C(=O)c1cc2cnc(Nc3ccc(C(=O)N4CC5CCC(C4)N5)nn3)nc2n1C1CCCC1 [Example 73, 7-Cyclopentyl-2-[6-(3,8-diaza-bicyclo[3.2.1]octane-3-carbonyl)-pyridazin-3-ylamino]-7H-pyrrolo[2,3-d]pyrimidine-6-carboxylic acid dimethylamide]	> 15000 nM								139 to 783 nM	75 to 259 nM	45 to 84 nM

Continued, in another order:

IC50 (CDK1/cyclin B)	IC50 (CDK4/cyclin D1; [4])	SMILES	IC50 [1, 2]	IC50 [1, 3]	IC50 [1, 5]	IC50 [1, 6]	IC50 ([1]; Homo sapiens, JeKo-1, read-out: Cellular ppRb inhibition IC50)	IC50 ([1]; Homo sapiens, JeKo-1, read-out: Normalized cellular ppRb inhibition IC50)	IC50 ([1]; JeKo-1 cells, p-pRb % inhibition adjusted with total pRb levels, read-out: Normalized cellular ppRb inhibition IC50)	IC50 ([1]; JeKo-1 cells, p-pRb Ser780 ELISA, non-normalized, read-out: Cellular ppRb inhibition IC50)	IC50 (CDK4/cyclin D1; read-out: Biochemical CDK4 enzyme IC50; 0.3 nM CDK4/cyclin D1, 150 nM biotin-pRb (773-924), 3 μM ATP, 60 min at 22° C.)
> 15000 nM	15 nM	CN(C)C(=O)c1cc2cnc(Nc3ccc(C(=O)N4C[C@@H]5[C@@H](N)[C@@H]5C4)cn3)nc2n1C1CCCC1 [Example 42, 2-[5-((1S,5R,6S)-6-Amino-3-aza-bicyclo[3.1.0]hexane-3-carbonyl)-pyridin-2-ylamino]-7-cyclopentyl-7H-pyrrolo[2,3-d]pyrimidine-6-carboxylic acid dimethylamide]			241 nM	86 nM					
> 15000 nM	15 to 21 nM	CN(C)C(=O)c1cc2cnc(Nc3ccc(C(=O)N4CC5CNCC5C4)cn3)nc2n1C1CCCC1 (centres unmarked) [Example 32, 7-cyclopentyl-N,N-dimethyl-2-(5-(octahydropyrrolo[3,4-c]pyrrole-2-carbonyl)pyridin-2-ylamino)-7H-pyrrolo[2,3-d]pyrimidine-6-carboxamide]	212 nM	131 nM							
> 15000 nM	17 nM	CN(C)C(=O)c1cc2cnc(Nc3ccc(C(=O)N4C[C@H]5CNC[C@@H](C4)C5O)cn3)nc2n1C1CCCC1 (stereo partly drawn) [Example 1, 7-Cyclopentyl-2-(5-((1R,5S)-9-hydroxy-3,7-diazabicyclo[3.3.1]nonane-3-carbonyl)pyridin-2-ylamino)-N,N-dimethyl-7H-pyrrolo[2,3-d]pyrimidine-6-carboxamide]			538 nM	364 nM					
> 15000 nM	94 to 144 nM	CN(C)C(=O)c1cc2cnc(Nc3ccc(C(=O)N4CC5CCC(C4)C5O)cn3)nc2n1C1CCCC1 [Example 33, 7-cyclopentyl-2-(5-((1R,5S,8r)-8-hydroxy-3-azabicyclo[3.2.1]octane-3-carbonyl)pyridin-2-ylamino)-N,N-dimethyl-7H-pyrrolo[2,3-d]pyrimidine-6-carboxamide]			430 to 1300 nM	377 to 919 nM					
8440 nM	6 nM	CN(C)C(=O)c1cc2cnc(Nc3ccc(C(=O)N4CC5CC(C4)N(C)C5)cn3)nc2n1C1CCCC1 (centres unmarked) [Example 13, 7-Cyclopentyl-2-[5-(6-methyl-3,6-diaza-bicyclo[3.2.1]octane-3-carbonyl)-pyridin-2-ylamino]-7H-pyrrolo[2,3-d]pyrimidine-6-carboxylic acid dimethylamide]			145 nM	65 nM					
